Experimental data reported in patent US20100247659A1, “PHENYLPHTHALIMIDE ANALOGS FOR TREATING DIABETIC MACULAR EDEMA” (Charlesson, LLC, priority 2007, published 2010).

Tests used:
HUVEC [1] = experiment: MTT cell proliferation assay, HUVEC; assay type: cell-based; details: Homo sapiens, 72 h, treated 3 days, read-out: IC50, inhibition of proliferation of HUVEC
From the text: (§1) Cell culture: All cell culture media and supplements were purchased from Cellgro unless otherwise indicated. Human Umbilical Vein Endothelial Cells (HUVEC) were obtained from American Type Culture Collection and grown in the EBM-MV2 medium (Clonetics). Bovine Retinal Endothelial Cells (BREC) and pericytes were isolated according to a modified method as described previously (Wong, et al. Investig. Opthalmol. Vis. Sci. 1987, 28: 1767-1775). Twelve bovine eyes were obtained from a local slaughterhouse (Country Home Meats). The retinas were removed and washed four times in DMEM. Subsequently retinas were homogenized and centrifuged at 400×g for 10 min. The resultant pellet was resuspended in an isolation medium (DMEM with 100 IU/ml penicillin, 100 μg/ml streptomycin and 250 ng/ml amphotericin). Microvessels were trapped on an 85 μm nylon mesh (Locker Wire Weavers LTD) and transferred to a petri dish (Falcon) containing 10 ml of an enzyme cocktail which consisted of 600 μg/ml DNase I (Sigma), 165 μg/ml collagenase (Sigma) and 700 μg/ml Pronase E (EMD) and were incubated at 37° C. for 20 min. The resultant vessel fragments were trapped on a 53 μm nylon mesh (Locker Wire Weavers LTD), washed with the isolation medium and centrifuged at 400×g for 5 min. For selective culture of pericytes, the resultant pellet was resuspended in 10 ml of the pericyte growth medium and transferred into 75-cm^2 plastic tissue culture flasks (BD Biosciences). For selective culture of BRCECs, the resultant pellet was resuspended in 10 ml of the BRCEC growth medium and transferred into 75-cm^2 collagen-coated plastic tissue culture flasks (BD Biosciences). The BRCEC growth medium consisted of DMEM supplemented with 10% human serum, 1% glutamine, 1 mg/ml insulin, 550 μg/ml transferring, 670 ng/ml selenium, 100 IU/ml penicillin, 100 μg/ml streptomycin, 250 ng/ml amphotericin, 90 μg/ml heparin (Sigma) and 15 μg/ml endothelial cell growth supplement (Upstate). Cells were cultured at 37° C. and 5% CO2 with regular medium change every 3 days. Confluence cultures were passaged by detaching the cells with 0.25% trypsin and plated at a split 1:3. […] At passage 2, BRCECs and pericytes were stored in a liquid nitrogen tank for future use.
MTT assay: Cells were seeded at a density of 5×10^4 cells per well in 400 μl of growth medium in triplicate in 24-well plates (Nalge Nunc) or gelatin-coated 24-well plates. Twenty-four hours after seeding, the growth medium was replaced by a medium containing 1% FBS, with or without different concentrations of thalidomide or phenylphthalimide analogs. After the cells were treated for 48-72 h, MTT was added to a final concentration of 0.5 mg of medium per ml and incubated for 4 h at 37° C. in 5% CO2. An equal volume of solubilizer buffer is then added, following the protocol recommended by the manufacturer (Roche Molecular Biochemicals), the cells will be incubated overnight at 37° C. in 5% CO2. The absorbance of the formazen product was measured at a wavelength of 570 nm, with 750 nm as the (subtracted) reference wavelength.
Primary endothelial cells (HUVEC and BRCEC) and pericytes were treated with various concentrations of the compounds for 3 days. Viable cells were quantified using MTT assay and IC50 of each compound was calculated (mean±SD, n=3, FIG. 1). The IC50 values represent the means and SE of 3 independent experiments.

HUVEC [2] = experiment: Endothelial cell migration (invasion) assay; assay type: cell-based; details: Homo sapiens, VEGF 4 ng/ml, invasion through Matrigel, read-out: IC50, inhibition of HUVEC migration
Protocol: Cells were allowed to invade for 22±1 hours. Cells were labeled post invasion with Calcein AM (4 μg/ml) and measured by detecting the fluorescence of cells that invaded through the BD Matrigel™ Matrix with an Applied Biosystems CytoFluor® 4000 plate reader at 485 nm excitation and 530 nm emission.
In this assay system, human endothelial cells are allowed to invade and are then labeled with fluorescent dye Calcein AM before quantification on a fluorometer.
In FIG. 2B, cells were seeded at 5×10^4/insert in EBM-2 containing 0.1% BSA in multi-well inserts. The assembled assays were allowed to proceed for 6 hours. The results are expressed as percent inhibition of migration as compared to control (no inhibitor). Data represents the average of 3 experiments, each run in triplicate. The bars represent mean±SD.

STZ-diabetic rats = experiment: Retinal vascular leakage in STZ-diabetic rats, intravitreal injection; assay type: in vivo, rat; details: single intravitreal 1.0 μg/eye (5 μl 0.8 mM), 48 h
Protocol: Induction of diabetes by streptozotocin (STZ): BN rats (8 weeks of age) were given a single intraperitoneal injection of fresh made streptozotocin (STZ) (Sigma, 50 mg/kg in 10 mM of citrate buffer, pH 4.5) following an overnight fasting. Control rats received an injection of citrate buffer alone. Blood glucose levels were checked at 24 hours following the last STZ injection and once a week thereafter, and only the animals with glucose levels higher than 350 mg/dl were considered diabetic. Rats with hyperglycemia for 2 weeks were used for these experiments.
Intravitreal injection of compounds: Thalidomide and the phenylphthalimide analogs Compounds 1, 2 and Compound 4 were dissolved in vehicle (BN rat serum) and sterilized by filtration. OIR and STZ-diabetic BN rats received an intravitreal injection of 0.5-2.0 μg/eye of (5 μl/eye, 0.1-0.4 mg/ml in BN rat serum) of thalidomide, Compounds 1, 2 or Compound 4 into the right eye and the equal volume of the BN rat serum into the left eye.
Evans blue dye (Sigma) was dissolved in 0.9% saline (30 mg/ml), sonicated for 5 min and filtered through a 0.45-μm filter (Millipore). The rats were then anesthetized, and Evans blue (30 mg/kg) was injected over 10 s through the femoral vein using a glass capillary under microscopic inspection. Evans blue non-covalently binds to plasma albumin in the blood stream. Immediately after Evans blue infusion, the rats turned visibly blue, confirming their uptake and distribution of the dye. The rats were kept on a warm pad for 2 h to ensure the complete circulation of the dye. Then the chest cavity was opened, and the rats were perfused via the left ventricle with 1% paraformaldehyde in citrate buffer (pH 4.2) which was pre-warmed to 37° C. to prevent vasoconstriction. The perfusion lasted 10 min under the physiological pressure of 120 mmHg, in order to clear the dye from the vessel. Immediately after perfusion, the eyes were enucleated and the retinas were carefully dissected under an operating microscope. Evans blue dye was extracted by incubating each sample in 150 μl of formamide for 18 h at 70° C. The extract was centrifuged (Beckman) at 70,000 rpm (Rotor type: TLA 100.3) for 20 min at 4° C. Absorbance was measured using 100 μl of the supernatant at 620 nm by using Spectrophotometer DU800 (Beckman). The concentration of Evans blue in the extract was calculated from a standard curve of Evans blue in formamide and normalized by the total protein concentration in each sample. Results were expressed in mg of Evans blue per mg of total protein content.
Diabetes was induced by injection of STZ (50 mg/kg, i.v.) into adult BN rats after overnight fasting. Blood glucose levels were monitored at the second day after the injection and once a week thereafter. Rats with glucose levels above 350 mg/dl were considered as diabetic and used for the study. thalidomide, Compounds 1, 2 and 4 were separately injected into the vitreous space (5 μl, 0.8 mM in BN rat serum) of the right eye of STZ-diabetic rats 2 wks after the induction of diabetes. At 48 h after the injection, retinal vascular leakage was measured using the Evans blue-albumin leakage method.
To determine the dose-response relationship of the effect of Compound 4 and thalidomide, the STZ-diabetic rats received an intravitreal injection of Compound 4 and thalidomide with doses of 0.5, 0.75 and 1.0 μg/eye (5 μl/eye of 0.10, 0.15 and 0.20 mg/ml), respectively.

BRCEC = experiment: MTT cell proliferation assay, BRCEC; assay type: cell-based, bovine; details: Bos taurus, 72 h, treated 3 days, read-out: IC50, inhibition of proliferation of BRCEC
From the text: as §1
MTT assay: Cells were seeded at a density of 5×10^4 cells per well in 400 μl of growth medium in triplicate in 24-well plates (Nalge Nunc) or gelatin-coated 24-well plates. […] The absorbance of the formazen product was measured at a wavelength of 570 nm, with 750 nm as the (subtracted) reference wavelength.
Primary endothelial cells (HUVEC and BRCEC) and pericytes were treated with various concentrations of the compounds for 3 days. Viable cells were quantified using MTT assay and IC50 of each compound was calculated (mean±SD, n=3, FIG. 1). […]

[3] = test system: CAM blood vessel formation induced by VEGF/bFGF; experiment: Chicken chorioallantoic membrane (CAM) assay; assay type: in vivo; details: 200 ng VEGF-165/bFGF, 48 hr
Protocol: Chicken chorioallantoic membrane (CAM) assay: The fertile Leghorn chicken eggs were incubated in a humidified environment at 37.5° C. for 10 days. […] Anti-angiogenic compounds were then added 8 hr after the VEGF/bFGF at saturation to the same microbial testing disk, and the embryos were incubated for an additional 40 h. CAMs were then removed, quickly fixed with 4% paraformaldehyde in PBS, placed onto Petri dishes, and digitized images taken at 7.5× using a Nikon dissecting microscope and Scion Imaging system. A 1×1-cm grid was then added to the digital CAM images and the average number of vessels within 5-7 grids counted as a measure of vascularity.
CAM assay was used for in vivo anti-angiogenic studies. The fertile leghorn chicken eggs were allowed to incubate in a humidified environment at 37.5° C. for 10 days. […] Anti-angiogenic compounds were then added 8 hours after the VEGF/bFGF at saturation to the same microbial testing disk and embryos allowed to incubate for an additional 40 hours. After 48 hr, CAMs were removed, quickly fixed with 4% paraformaldehyde in PBS, placed onto Petri dishes, and digitized images taken at 7.5× using a Nikon dissecting microscope and Scion Imaging system. A 1×1-cm grid was then added to the digital CAM images and the average number of vessels within 5-7 grids counted as a measure of vascularity.
FIG. 14 is a table comparing the effect of Compound 4 on blood vessel formation. […] Data represent mean±SD of 8-16 samples from 2-3 separate experiments.

SMILES	IC50 (HUVEC [1]) [µM]	IC50 (HUVEC [2]) [µM]	reduction of retinal vascular leakage vs vehicle control (STZ-diabetic rats) [%]	IC50 (BRCEC) [µM]	ED50, dose reducing blood vessel number to 50% of VEGF/bFGF alone group [3] [μg/embryo]
Nc1cccc2c1C(=O)N(C1CCC(=O)NC1=O)C2=O (stereo not drawn) [Actimid]	> 100	–	–	–	–
CC(C)c1cccc(C(C)C)c1N1C(=O)c2ccc(O)cc2C1=O [Compound 1]	3.3	1	61	1.94	–
CC(C)c1cccc(C(C)C)c1N1C(=O)c2ccccc2C1=O [Compound 2, (2,6-diisopropylphenyl)-1H-isoindole-1,3-dione]	3	–	–	3.56	–
Nc1cccc2c1CN(C1CCC(=O)NC1=O)C2=O (stereo not drawn) [Revimid]	> 100	–	–	–	–
Cc1cc(C)c(/C=C2\C(=O)Nc3ccccc32)[nH]1 [SU5416]	–	–	–	–	7.8
